Tests used:
skin of hairless mice [1] = experiment: Inhibition of wrinkle formation in hairless mice (visual wrinkle index); type: in vivo, hairless mouse (HR/ICR); details: 5 wt. % in ethanol, 80 μl; UV-B five times per week, sixteen weeks; scale 1 (no wrinkles) to 4; control (ethanol) 3.78 ± 0.08
Procedure: (1) Inhibition of wrinkle formation in hairless mice.
(§1) To each hairless mouse (HR/ICR, 6 weeks old when the test started), a test substance (5 wt. %, in ethanol) was applied. (80 μl). Approximately 10 minutes later, UV-B was irradiated thereto using 6 bulbs of health lamps (SL20-SLE, Toshiba) so that the dose per irradiation was not greater than 1 MED. Irradiation was repeated five times per week over sixteen weeks. While the irradiation energy was measured using a UV-radiometer (UVR-305/S65D, Tokyo Optical K.K.) so that the dose per irradiation was not greater than 1 MED, energy was irradiated at an intensity of 0.28 mW/cm^2, with the total dose. 100 mJ/cm^2. As a control, a case where only ethanol was applied was similarly tested in a manner performed on the test substances.
After completion of the testing, the level of wrinkle formation was visually determined using the following standards (wrinkle indices).
1: No wrinkles are formed
2: Small amounts of wrinkles are formed
3: Moderate amounts of wrinkles are formed
4: Considerable amounts of wrinkles are formed

skin of hairless mice [2] = experiment: Analysis of wrinkles in hairless mice (image analysis of skin replicas); type: in vivo, hairless mouse (HR/ICR); details: 5 wt. % in ethanol, 80 μl; UV-B sixteen weeks; shadow area of skin replicas, 30°; control (ethanol) 6.46 ± 0.68
Procedure: as §1
In order to analyze the wrinkles formed in the above step (1) in detail, replicas of different skin areas (3 replicas per mouse) each having a round shape with a diameter of 1 cm were obtained using a hydrophilic exaflex, hydrophilic vinyl silicone imaging agent. Each replica was placed horizontally and lightened from an angle of 30°. The area of shadows formed by wrinkles was analyzed as the area ratio using an image analyzing apparatus.

Structure (SMILES)	Wrinkle index (skin of hairless mice [1])	Area ratio of image analysis (skin of hairless mice [2]) [%]
COc1ccc(N(Cc2ccc(C)o2)Cc2ccc(C)o2)cc1OC [Compound (27), N,N-bis(5-methylfurfuryl)-3,4-dimethoxyphenylamine]	2.22 ± 0.17	3.73 ± 0.29
CCCCC(CC)CN(Cc1ccco1)Cc1ccco1 (centres unmarked) [Compound (23), N,N-bisfurfuryl-2-ethylhexylamine]	2.17 ± 0.05	3.23 ± 0.18
Cc1ccc(N(Cc2ccc(C)o2)Cc2ccc(C)o2)cc1 [Compound (29), N,N-bis(5-methylfurfuyl)-4-methylphenylamine]	2.28 ± 0.06	3.64 ± 0.12
CCCCN(Cc1ccco1)Cc1ccco1 [Compound (22), N,N-bisfurfurylbutylamine]	2.34 ± 0.16	3.37 ± 0.30
COc1cc(N(Cc2ccc(C)o2)Cc2ccc(C)o2)cc(OC)c1OC [Compound (28), N,N-bis(5-methylfurfuryl)-3,4,5-trimethoxyphenylamine]	2.43 ± 0.06	3.24 ± 0.33
COc1ccc(N(Cc2ccco2)Cc2ccc(C)o2)cc1 [Compound (31), N-furfuryl-N-(S-methylfurfuryl)-4-methoxyphenylamine]	2.49 ± 0.20	3.30 ± 0.17
COc1ccc(N(Cc2ccc(C)o2)Cc2ccc(C)o2)cc1 [Compound (26), N,N-bis(5-methylfurfuryl)-p-methoxyphenylamine]	2.44 ± 0.33	3.69 ± 0.59
CCOC(=O)CN(Cc1ccco1)Cc1ccco1 [Compound (24), ethyl N,N-bisfurfurylglycine]	2.56 ± 0.08	3.27 ± 0.29
Cc1ccc(CN(Cc2ccc(C)o2)c2ccccc2)o1 [Compound (25), N,N-bis(5-methylfurfuryl)phenylamine]	2.35 ± 0.34	3.32 ± 0.21
CC(=O)Oc1c(C)c(C)c2c(c1C)CCC(C)(CCCC(C)CCCC(C)CCCC(C)C)O2 (stereo not drawn) [α-Tocopheryl acetate, reference compound]	3.28 ± 0.23	4.67 ± 0.48

Source: patent publication US5709816A, “Singlet oxygen quenchers and external compositions containing the same” (Kao Corporation, priority 1899, dated 1998)
